The test system of series [1] is Trypanosoma cruzi. Kind of series: Antitrypanosomal activity against epimastigote stage of Trypanosoma cruzi Y assessed as parasite growth inhibition at 50 ug/mL after 72 hrs by spectrophotometric analysis relative to control. In kind it is functional. Particulars: read-out: GI.
Series [2] has as its system Trypanosoma cruzi. Kind of series: Antitrypanosomal activity against epimastigote stage of Trypanosoma cruzi Y assessed as parasite growth inhibition at 10 ug/mL after 72 hrs by spectrophotometric analysis relative to control. The class given is functional. The settings on record: read-out: GI.
Series [3] concerns Trypanosoma cruzi. Kind of series: Antitrypanosomal activity against epimastigote stage of Trypanosoma cruzi Y assessed as parasite growth inhibition at 20 ug/mL after 72 hrs by spectrophotometric analysis relative to control. The class given is functional. Particulars: read-out: GI.
The nature of series [4]: Genotoxicity in human bronchial epithelial cells assessed as increase of micronucleated cells at 50 ug/mL after 24 hrs by acridine orange staining-based fluorescence microscopic analysis. The class given is toxicity. Particulars: epithelial cell.

The structures appear in SMILES notation.

Consider `O=C(N/N=C/c1ccc2c(c1)no[n+]2[O-])c1ccc(Cl)c(Cl)c1`, for which the inhibition of growth at 50 µg/mL with Trypanosoma cruzi [1] came out at 75%. Moreover, the inhibition of growth at 10 µg/mL in the series with Trypanosoma cruzi [2] was found to be 51%. For the same molecule, the inhibition of growth at 20 µg/mL in the series with Trypanosoma cruzi [3] was determined as 81%.
In the same order, the values of `O=C(N/N=C/c1ccc2c(c1)no[n+]2[O-])c1ccc([N+](=O)[O-])cc1` are 73%, 13% and 73%.
In the same order, the values of `COc1ccc(C(=O)N/N=C/c2ccc3c(c2)no[n+]3[O-])cc1` are 76%, 36% and 69%.
On the same counts, the results for `N#Cc1ccc(C(=O)N/N=C/c2ccc3c(c2)no[n+]3[O-])cc1` are 44%, 8% and 39%.
As to `CCOc1ccc(C(=O)N/N=C/c2ccc3c(c2)no[n+]3[O-])cc1`, the inhibition of growth at 50 µg/mL in the series on Trypanosoma cruzi [1] was 66%. Also, the inhibition of growth at 10 µg/mL in the series on Trypanosoma cruzi [2] is 32%. Further, the inhibition of growth at 20 µg/mL in the series on Trypanosoma cruzi [3] amounted to 68%.
On the same counts, the results for `Cc1ccc(C(=O)N/N=C/c2ccc3c(c2)no[n+]3[O-])cc1` are 76%, 34% and 62%.
In the same order, the values of `CN(C)c1ccc(C(=O)N/N=C/c2ccc3c(c2)no[n+]3[O-])cc1` are 10%, 4% and 7%.
On the same counts, the results for `NS(=O)(=O)c1ccc(C(=O)N/N=C/c2ccc3c(c2)no[n+]3[O-])cc1` are 12%, 5% and 9%.
As for `O=C(N/N=C/c1ccc2c(c1)no[n+]2[O-])c1ccc(F)cc1`, in the series with Trypanosoma cruzi [1], the inhibition of growth at 50 µg/mL was 78%. For the same molecule, in the series with Trypanosoma cruzi [2], the inhibition of growth at 10 µg/mL came to 45%. Further, the inhibition of growth at 20 µg/mL in the series on Trypanosoma cruzi [3] amounted to 79%.
In the same order, the values of `O=C(Cn1ccnc1[N+](=O)[O-])NCc1ccccc1` [BENZNIDAZOLE] are 77%, 44% and 66%.
On the same counts, the results for `O=C(N/N=C/c1ccc2c(c1)no[n+]2[O-])c1ccc(O)cc1` are 47%, 0% and 3%.
In the case of `O=C(N/N=C/c1ccc2c(c1)no[n+]2[O-])c1ccc(Br)cc1`, the inhibition of growth at 50 µg/mL with Trypanosoma cruzi [1] worked out at 58%. Also, the inhibition of growth at 10 µg/mL with Trypanosoma cruzi [2] was 44%. Besides, in the series on Trypanosoma cruzi [3], the inhibition of growth at 20 µg/mL turned out to be 76%.
Take `O=C(N/N=C/c1ccc2c(c1)no[n+]2[O-])c1ccc(Cl)cc1`: the inhibition of growth at 50 µg/mL in the series on Trypanosoma cruzi [1] came out at 62%. Also, the inhibition of growth at 10 µg/mL with Trypanosoma cruzi [2] is 54%. Further, the inhibition of growth at 20 µg/mL with Trypanosoma cruzi [3] was found to be 83%. The Activity entry in series [4] was “Non-toxic”.
For `CC(=O)c1ccc(C(=O)N/N=C/c2ccc3c(c2)no[n+]3[O-])cc1`, the inhibition of growth at 50 µg/mL with Trypanosoma cruzi [1] is 83%. In addition, the inhibition of growth at 10 µg/mL with Trypanosoma cruzi [2] came out at 14%. The inhibition of growth at 20 µg/mL with Trypanosoma cruzi [3] was 34%.
Turning to `O=C(N/N=C/c1ccc2c(c1)no[n+]2[O-])c1ccccc1`, in the series with Trypanosoma cruzi [1], the inhibition of growth at 50 µg/mL amounted to 95%. In addition, in the series with Trypanosoma cruzi [2], the inhibition of growth at 10 µg/mL stood at 46%. For the same molecule, in the series on Trypanosoma cruzi [3], the inhibition of growth at 20 µg/mL was determined as 82%. Besides, the Activity entry in series [4] is reported as “Non-toxic”.
`CCc1ccc(C(=O)N/N=C/c2ccc3c(c2)no[n+]3[O-])cc1`: in the series on Trypanosoma cruzi [1], the inhibition of growth at 50 µg/mL came out at 85%. The inhibition of growth at 10 µg/mL in the series with Trypanosoma cruzi [2] stood at 47%. In addition, the inhibition of growth at 20 µg/mL in the series on Trypanosoma cruzi [3] was determined as 76%.
For the molecule `O=C(N/N=C/c1ccc2c(c1)no[n+]2[O-])c1ccc(C(F)(F)F)cc1`, the inhibition of growth at 50 µg/mL in the series on Trypanosoma cruzi [1] is 82%. Also, the inhibition of growth at 10 µg/mL with Trypanosoma cruzi [2] is 65%. The inhibition of growth at 20 µg/mL in the series with Trypanosoma cruzi [3] amounted to 86%. In addition, the Activity result in series [4] was “Non-toxic”.
Regarding `O=C(N/N=C/c1ccc2c(c1)no[n+]2[O-])c1ccc(I)cc1`, in the series with Trypanosoma cruzi [1], the inhibition of growth at 50 µg/mL was 60%. Further, the inhibition of growth at 10 µg/mL with Trypanosoma cruzi [2] came out at 54%. For the same molecule, the inhibition of growth at 20 µg/mL in the series on Trypanosoma cruzi [3] was 81%.
For `O=C(N/N=C/c1ccc2c(c1)no[n+]2[O-])c1ccc(Cl)cc1Cl`, in the series on Trypanosoma cruzi [1], the inhibition of growth at 50 µg/mL amounted to 89%. In the series on Trypanosoma cruzi [2], the inhibition of growth at 10 µg/mL came to 42%. The inhibition of growth at 20 µg/mL with Trypanosoma cruzi [3] is 72%.
On the same counts, the results for `Nc1ccc(C(=O)N/N=C/c2ccc3c(c2)no[n+]3[O-])cc1` are 42%, 7% and 24%.
In the same order, the values of `O=C(N/N=C/c1ccc2c(c1)no[n+]2[O-])c1ccc([N+](=O)[O-])c(C(F)(F)F)c1` are 82%, 54% and 82%.
